The text below walks through data of patent US12054553B2, “Immunotherapeutic tumor treatment method” (Nektar Therapeutics, priority 2017, dated 2024).

Assay [1] has as its system B16F10 mouse melanoma tumors. Nature of the assay: Immune cells in tumor microenvironment by flow cytometry, subcutaneous B16F10 melanoma. It counts as in vivo, mice. On the technique in general: Flow cytometry measures light scatter and fluorescence of single cells or particles in a stream.
In assay [2] the test system is STAT5 phosphorylation in lymphocytes. Nature of the assay: STAT5 phosphorylation in lymphocytes by flow cytometry after administration in mice. The class given is in vivo. The text has this: Conventional approaches, such as those involving radiolabeling a compound, administering it in vivo, and determining its clearance, may be used to determine whether a compound proposed to be a long-acting IL-2Rβ biased agonist is “long-acting”. For the purposes herein, the long-acting nature of an IL-2Rβ biased agonist is typically determined using flow cytometry to measure STAT5 phosphorylation in lymphocytes at various time points after administration of the agonist to be evaluated in mice.

Consider “aldesleukin: clinically available IL-2 (aldesleukin), unmodified recombinant IL-2”, for which the “activated natural killer (NK) cells” value in assay [1] (5 and 7 days after treatment initiation) is on record as “increased”. Further, the “ratio of CD8/Treg in the tumor” value in assay [1] (by day 7, single dose RSLAIL-2 or 5 doses aldesleukin) was 18. For the same substance, the “total and memory CD8 cells as percentage of tumor-infiltrating lymphocytes” value in assay [1] (relative to vehicle) is listed as “increased as a percentage of tumor-infiltrating lymphocytes; however, these effects were transient”. Also, in assay [1] (single dose RSLAIL-2 or 5 doses aldesleukin), the “percentage of Tregs (FoxP3+ subset of CD4 cells) in tumor” value was “modest achieving significance on day 5”. Besides, the “time by which STAT5 phosphorylation signal is lost” value in assay [2] was “around 24 hours”.
